# According to US6174877A, “Carbapenem compound, their production and use” (Takeda Chemical Industries, Ltd., priority 1996, dated 2001):
# Where two headings read alike, the source gives them in different places.
# Legend:
# [1] = tested on: E. coli NHIJ JC-2; assay: Minimum inhibitory concentration (MIC) by agar dilution method; assay type: cell-based; conditions: Escherichia coli
# Protocol: (§1) Minimum Inhibitory Concentration (MIC)
# (§2) The minimum inhibitory concentration [MIC (unit: (μg/ml)] of the test compound was determined by an agar dilution method. More specifically, 0.25 ml of an aqueous solution of the test compound diluted stepwise was put into a Petri dish, which was then mixed with 9.75 ml of Muller-Hinton agar containing fildis enrichment [F-MH medium. fildis enrichment (5%)]). On thus-prepared mixed agar plate, a suspension of the test bacteria (about 10^6 CFU/ml) was spread, which was incubated at 37° C. overnight.
# [2] = tested on: H. influenzae NN400; assay: as above; assay type: cell-based; conditions: Haemophilus influenzae
# Protocol: as §1, §2
# [3] = NHIJJC2, strain E. coli NHIJ JC-2, medium F-MH, 10^6 CFU/ml, 37° C. overnight, read-out: MIC (μg/ml) 10^6 CFU/ml E. coli NHIJ JC-2
# [4] = strain H. influenzae NN400, medium F-MH, 10^6 CFU/ml, 37° C. overnight, read-out: MIC (μg/ml) 10^6 CFU/ml H. influenzae NN400
# [5] = NHIJJC2, read-out: MIC (μg/ml) 10^6 CFU/ml E. coli NHIJ JC-2
# [6] = NN400, read-out: MIC (μg/ml) 10^6 CFU/ml H. influenzae NN400
SMILES,"MIC [1, 3] [µg/mL]","MIC [2, 4] [µg/mL]","MIC [1, 5] [µg/mL]","MIC [2, 6] [µg/mL]"
"CC(Cc1cccnn1)SC1=C(C(=O)O)N2C(=O)[C@H]([C@@H](C)O)[C@H]2[C@H]1C (single isomer, unassigned; diastereomer-2) [Working Example 17]",0.1,0.1,,
"C[C@@H](O)[C@H]1C(=O)N2C(C(=O)O)=C(SCCN=CN)C[C@H]12 [Imipenem, reference compound]",0.1,0.78,,
"C[C@@H](O)[C@H]1C(=O)N2C(C(=O)O)=C(SCCc3c[nH]nn3)[C@H](C)[C@H]12 [Working Example 2-3, Sodium (4R,5S,6S)-6-[(1R)-1-hydroxyethyl]-4-methyl-7-oxo-3-[2-(1,2,3-triazol-4-yl)ethylthio]-1-azabicyclo[3.2.0]hept-2-ene-carboxylate]",0.025,0.1,,
"C[C@@H](O)[C@H]1C(=O)N2C(C(=O)[O-])=C(SCCc3cc[nH]n3)[C@H](C)[C@H]12.[Na+] [Working Example 3-3, Sodium (4R,5S,6S)-6-[(1R)-1-hydroxyethyl]-4-methyl-7-oxo-3-[2-(3-pyrazolyl)ethylthio]-1-azabicyclo[3.2.0]hept-2-ene-2-carboxylate]",,,0.1,0.1
"C[C@@H](O)[C@H]1C(=O)N2C(C(=O)[O-])=C(SCCc3cn4ccccc4n3)[C@H](C)[C@H]12.[Na+] [Working Example 18-2, Sodium (4R,5S,6S)-6-[(R)-1-hydroxyethyl]-3-[2-(imidazo[1,2-a]pyridin-2-yl)ethylthio]-4-methyl-7-oxo-1-azabicyclo[3.2.0]hept-2-ene-2-carboxylate]",,,0.2,0.1
"C[C@@H](O)[C@H]1C(=O)N2C(C(=O)O)=C(SCCc3cn4cc(N)ccc4n3)[C@H](C)[C@H]12 [Working Example 29-2, Sodium (4R,5S,6S)-3-[2-(6-aminoimidazo[1,2-a]pyridin-2-yl)ethylthio]-6-[(1R)-1-hydroxyethyl]-4-methyl-7-oxo-1-azabicyclo[3.2.0]hept-2-ene-carboxylate]",0.2,0.05,,
"C[C@@H](O)[C@H]1C(=O)N2C(C(=O)[O-])=C(SCCc3cn4cccnc4n3)[C@H](C)[C@H]12.[Na+] [Working Example 32-2, Sodium (4R,5S,6S)-6-[(1R)-1-hydroxyethyl]-3-[2-(imidazo[1,2-a]pyrimidin-2-yl)ethylthio]-4-methyl-7-oxo-1-azabicyclo[3.2.0]hept-2-ene-2-carboxylate]",,,0.2,0.05
"C[C@@H](O)[C@H]1C(=O)N2C(C(=O)[O-])=C(SCCc3cn4c(NC(N)=O)cccc4n3)[C@H](C)[C@H]12.[Na+] [Working Example 33-2, Sodium (4R,5S,6S)-6-[(1R)-1-hydroxyethyl]-4-methyl-7-oxo-3-[2-(5-ureidoimidazo[1,2-a]pyridin-2-yl)ethylthio]-1-azabicyclo[3.2.0]hept-2-ene-2-carboxylate]",,,0.2,0.1
